According to publication PMC10419174, “WR1065 conjugated to thiol-PEG polymers as novel anticancer prodrugs: broad spectrum efficacy, synergism, and drug resistance reversal” (Frontiers in Oncology, 2023):
“And” between values parts separate entries of the source, which are not always exact repeats. Equal values may be shown once. Read-outs that look alike come from different tables or passages of the source. Marks after values point to notes of the source that are not given here.

Assays:
Assay in all cases: cells
Ovary SKOV3 cells = details: for Fold increase in efficacy: drug alone ÷ drug in 4SP65-DDP combination
Description: (§1) The percentage of growth inhibition was calculated as follows: […]

human cancer cell lines = system: human cancer cell lines
Description: as §1

Prostate LNCaP cells = system: Prostate LNCaP cells
Description: as §1

Ovary TOV21G cells = details: for Fold increase in efficacy: drug alone ÷ drug in 4SP65-DDP combination
Description: as §1

[1] = drug alone, 48 h, 4SP65/cisplatin study
[2] = drug alone, 48 h, 4SP65/cisplatin study, ND = not definable, highest concentration in parentheses
[3] = 4SP65: average across 15 cell lines, 48 h
[4] = 15 cell lines for 4SP65, 11 for 1LP65
[5] = average of A549, H460, PPMMill, LNCaP
[6] = average of HCC38, MDA-MB-231, H1975, HMESO1, PANC1, DU145, PC3
[7] = averages of dose-response metrics across the panel
[8] = averages over 11 cell lines, minimal fold differences
[9] = 48-h treatment, amifostine ND = not definable up to 500 µM

4-star-PEG-S-S-WR1065 [4SP65]
Fold increase in efficacy (Ovary SKOV3 cells; at IC50): 1.8** fold | Fold increase in efficacy (Ovary SKOV3 cells; at LC50, GoE = gain of effect): 1.3** fold | Fold increase in efficacy (Ovary SKOV3 cells; at LC99, GoE = gain of effect): 1.3* fold | Fold increase in efficacy (Ovary SKOV3 cells; at TGI, GoE = gain of effect): 1.5* fold | GI50 (Ovary SKOV3 cells; [1]): 4300 ± 1000 nM | IC50 (Ovary SKOV3 cells; [1]): 5200 ± 1000 nM | LC99 (Ovary SKOV3 cells; [2]): 10.0 ± 0.8 µM | TGI (Ovary SKOV3 cells; [2]): 7300 ± 800 nM | fold more potent than 1LP65, average (human cancer cell lines): 10.4 fold | fold increases in cytostatic and cytolytic activities, range (human cancer cell lines; 4SP65-cisplatin combined, H460 and SKOV3 cells): 1.3- to 36 fold | gains of effect, range (not significant) (human cancer cell lines; 4SP65-cisplatin combined, HMESO1 and PPMMill cells): 1.1- to 1.3 fold | LC99, All cell lines (human cancer cell lines; [3]): 11.2 ± 1.2 µM | TGI, All cell lines (human cancer cell lines; [3]): 6800 ± 1100 nM | LC99, range for individual cell lines (human cancer cell lines; [4]): 3.0 to 21.1 µM | TGI, range for individual cell lines (human cancer cell lines; [4]): 2000 to 16300 nM | fold more effective as a cytostatic agent than PRIMA-1 or APR-246 (human cancer cell lines; TP53 mutant cells): 2.3- to 30 fold | fold more effective as a cytostatic agent than PRIMA-1 or APR-246 (human cancer cell lines; TP53 wild-type cells): 4.3- to 21 fold | LC99, TP53 Wild-Type (human cancer cell lines; [5]): 14.4 ± 1.6 µM | TGI, TP53 Wild-Type (human cancer cell lines; [5]): 9500 ± 2000 nM | LC99, TP53 Mutant (human cancer cell lines; [6]): 9.1 ± 0.9 µM | TGI, TP53 Mutant (human cancer cell lines; [6]): 4400 ± 900 nM | fold more potent than amifostine as a cytostatic agent, average (human cancer cell lines; [7]): 55 fold | fold more potent than amifostine as a cytostatic agent, range (human cancer cell lines; [7]): 45- to 63 fold | Fold difference in drug potency 4SP65 vs 1LP65: GI50 (human cancer cell lines; averages over 11 cell lines): 10.2 | Fold difference in drug potency 4SP65 vs 1LP65: IC50 (human cancer cell lines; averages over 11 cell lines): 9.7 | Fold difference in drug potency 4SP65 vs 1LP65: LC50 (human cancer cell lines; averages over 11 cell lines): 10.4 | Fold difference in drug potency 4SP65 vs 1LP65: LC99 (human cancer cell lines; averages over 11 cell lines): 11.3 | Fold difference in drug potency 4SP65 vs 1LP65: TGI (human cancer cell lines; averages over 11 cell lines): 10.2 | Fold difference in drug potency vs amifostine: GI50 (human cancer cell lines; [8]): > 45 | Fold difference in drug potency vs amifostine: IC50 (human cancer cell lines; [8]): > 57 | Fold difference in drug potency vs amifostine: TGI (human cancer cell lines; [8]): > 63 | fold more potent than 1LP65, range (human cancer cell lines; depending on the dose-response metric): 9.7- to 11.3 fold | fold greater effect than amifostine (human cancer cell lines; four cell lines where amifostine GI50 <100 µM): 38 fold | GI50 (human cancer cell lines; read-out: GI50, All cell lines, 4SP65: average across 15 cell lines, 48 h): 4100 ± 800 nM | GI50 (human cancer cell lines; read-out: GI50, TP53 Mutant, average of HCC38, MDA-MB-231, H1975, HMESO1, PANC1, DU145, PC3): 2600 ± 800 nM | GI50 (human cancer cell lines; read-out: GI50, TP53 Wild-Type, average of A549, H460, PPMMill, LNCaP): 5800 ± 1400 nM | GI50 (human cancer cell lines; read-out: GI50, range for individual cell lines, 15 cell lines for 4SP65, 11 for 1LP65): 700 to 10600 nM | GI50 (human cancer cell lines; read-out: GI50 range, seven cell lines compared with NCI data (Table 5)): 700 to 9400 nM | GI50 (human cancer cell lines; read-out: average GI50, four cell lines where amifostine GI50 <100 µM): 1700 nM | fold potency greater than predicted by four versus one WR1065/molecule (human cancer cell lines; versus 1LP65): ~ 2.5 fold | CC50 (Prostate LNCaP cells): 7300 ± 1800 nM | GI50 (Prostate LNCaP cells; [9]): 2500 ± 1000 nM | IC50 (Prostate LNCaP cells; [9]): 3100 ± 1500 nM | LC99 (Prostate LNCaP cells; [9]): 10.1 ± 1.0 µM | TGI (Prostate LNCaP cells; [9]): 4700 ± 1500 nM | Dose reduction value 1LP65 ÷ 4SP65 (Prostate LNCaP cells; at GI50): 11 fold | Dose reduction value AMF ÷ 4SP65 (Prostate LNCaP cells; at GI50): 60 fold | Dose reduction value 1LP65 ÷ 4SP65 (Prostate LNCaP cells; at IC50): 14 fold | Dose reduction value AMF ÷ 4SP65 (Prostate LNCaP cells; at IC50): 122 fold | Dose reduction value 1LP65 ÷ 4SP65 (Prostate LNCaP cells; at LC50): 12 fold | Dose reduction value 1LP65 ÷ 4SP65 (Prostate LNCaP cells; at LC99): 11 fold | Dose reduction value 1LP65 ÷ 4SP65 (Prostate LNCaP cells; at TGI): 11 fold | CC50 (Ovary TOV21G cells): 2700 nM | gains in total growth inhibition and cytolytic effects, range (Ovary TOV21G cells; 4SP65-cisplatin combined): 2.4- to 3.2 fold | GI50 (Ovary TOV21G cells; [9]): 900 ± 400 nM | IC50 (Ovary TOV21G cells; [9]): 1200 ± 300 nM | TGI (Ovary TOV21G cells; [9]): 2000 ± 400 nM | LC99, drug in combination (CMB) (Ovary TOV21G cells; amount of each drug in combination, ratio 14% 4SP65:86% DDP, 48 h): 0.95 µM | Dose reduction value 1LP65 ÷ 4SP65 (Ovary TOV21G cells; at GI50): 24 fold | Dose reduction value AMF ÷ 4SP65 (Ovary TOV21G cells; at GI50): 52 fold | Dose reduction value 1LP65 ÷ 4SP65 (Ovary TOV21G cells; at IC50): 22 fold | Dose reduction value AMF ÷ 4SP65 (Ovary TOV21G cells; at IC50): 41 fold | Dose reduction value 1LP65 ÷ 4SP65 (Ovary TOV21G cells; at LC50): 19 fold | Dose reduction value 1LP65 ÷ 4SP65 (Ovary TOV21G cells; at LC99): 31 fold | Dose reduction value 1LP65 ÷ 4SP65 (Ovary TOV21G cells; at TGI): 27 fold | Fold increase in efficacy (Ovary TOV21G cells; at GI50): 2.3 (NS) fold | Fold increase in efficacy (Ovary TOV21G cells; at IC50): 1.9 (NS) fold | Fold increase in efficacy (Ovary TOV21G cells; at LC50): 3.0*** fold | Fold increase in efficacy (Ovary TOV21G cells; at LC99): 3.2*** fold | Fold increase in efficacy (Ovary TOV21G cells; at TGI): 2.4* fold | GI50 (Ovary TOV21G cells; [1]): 930 ± 370 nM | IC50 (Ovary TOV21G cells; [1]): 1200 ± 300 nM | LC99 (Ovary TOV21G cells; [1]): 3.0 µM and 3.0 ± 0.2 µM | TGI (Ovary TOV21G cells; [1]): 2000 ± 400 nM
